Experimental data taken from the NIST ThermoML archive (doi:10.1021/je060271a).
Values joined by “and” are separate entries in the source; they are usually repeats but may differ in a detail not shown here. Equal entries are not always repeated.

Conditions: Liquid, Vibrating tube method

CCCCC(=O)OCC(COC(=O)CCCC)(COC(=O)CCCC)COC(=O)CCCC [pentaerythritol tetrapentanoate]
Conditions	mass density
343.14 K, 22204 kPa	994.9 kg/m3
343.14 K, 22235 kPa	994.9 kg/m3
343.14 K, 22267 kPa	995 kg/m3
343.14 K, 22298 kPa	995 kg/m3
343.14 K, 22334 kPa	995 kg/m3
343.14 K, 22365 kPa	994.9 kg/m3
343.14 K, 22395 kPa	994.9 kg/m3
343.14 K, 22432 kPa	994.9 kg/m3
343.14 K, 22462 kPa	995.1 kg/m3
343.14 K, 22494 kPa	995 kg/m3
343.14 K, 22562 kPa	995.1 kg/m3
343.14 K, 22594 kPa	995 kg/m3
343.14 K, 22728 kPa	995.2 kg/m3
343.14 K, 22766 kPa	995.2 kg/m3
343.14 K, 22798 kPa	995.3 kg/m3
343.14 K, 22830 kPa	995.3 kg/m3
343.14 K, 22868 kPa	995.3 kg/m3
343.14 K, 22901 kPa	995.4 kg/m3
343.14 K, 22933 kPa	995.4 kg/m3
343.14 K, 22971 kPa	995.4 kg/m3
343.14 K, 23004 kPa	995.4 kg/m3
343.14 K, 23038 kPa	995.4 kg/m3
343.14 K, 23077 kPa	995.5 kg/m3
343.14 K, 23110 kPa	995.5 kg/m3
343.14 K, 23144 kPa	995.4 kg/m3
343.14 K, 23177 kPa	995.5 kg/m3
343.14 K, 23217 kPa	995.5 kg/m3
343.14 K, 23284 kPa	995.6 kg/m3
343.14 K, 23357 kPa	995.6 kg/m3
343.14 K, 23391 kPa	995.5 kg/m3
343.14 K, 23432 kPa	995.8 kg/m3
343.14 K, 23500 kPa	995.8 kg/m3
343.14 K, 23535 kPa	995.9 kg/m3
343.14 K, 23577 kPa	995.7 kg/m3
343.14 K, 23612 kPa	995.8 kg/m3
343.14 K, 23646 kPa	995.8 kg/m3
343.14 K, 23687 kPa	995.8 kg/m3
343.14 K, 23722 kPa	995.9 kg/m3
343.14 K, 23757 kPa	995.9 kg/m3
343.14 K, 23799 kPa	995.9 kg/m3
343.14 K, 23834 kPa	996 kg/m3
343.14 K, 23870 kPa	996 kg/m3
343.14 K, 23913 kPa	996.1 kg/m3
343.14 K, 23949 kPa	996.2 kg/m3
343.14 K, 24100 kPa	996 kg/m3
343.14 K, 24817 kPa	996.7 kg/m3
343.14 K, 25020 kPa	996.6 kg/m3
343.14 K, 25061 kPa	996.8 kg/m3
343.14 K, 25102 kPa	996.8 kg/m3
343.14 K, 25142 kPa	996.7 kg/m3
343.14 K, 25188 kPa	996.9 kg/m3
343.14 K, 25228 kPa	996.9 kg/m3
343.14 K, 25406 kPa	996.9 kg/m3
343.14 K, 25451 kPa	997.1 kg/m3
343.14 K, 25495 kPa	997 kg/m3
343.14 K, 25549 kPa	997 kg/m3
343.14 K, 25596 kPa	997.1 kg/m3
343.14 K, 25644 kPa	997.2 kg/m3
343.14 K, 25691 kPa	997.1 kg/m3
343.14 K, 25745 kPa	997.1 kg/m3
343.14 K, 25792 kPa	997.2 kg/m3
343.14 K, 25943 kPa	997.2 kg/m3
343.14 K, 25992 kPa	997.3 kg/m3
343.14 K, 26041 kPa	997.5 kg/m3
343.14 K, 26099 kPa	997.5 kg/m3
343.14 K, 26149 kPa	997.5 kg/m3
343.14 K, 30161 kPa	1000.1 kg/m3
343.14 K, 32316 kPa	1001.3 kg/m3
343.14 K, 32354 kPa	1001.4 kg/m3
343.14 K, 32399 kPa	1001.4 kg/m3
343.14 K, 32523 kPa	1001.6 kg/m3
343.15 K, 106.2 kPa	978.6 kg/m3
343.15 K, 106.4 kPa	978.5 kg/m3 and 978.6 kg/m3
343.15 K, 106.6 kPa	978.5 kg/m3
343.15 K, 106.7 kPa	978.6 kg/m3
343.15 K, 106.8 kPa	978.6 kg/m3
343.15 K, 106.9 kPa	978.6 kg/m3
343.15 K, 107.4 kPa	978.6 kg/m3
343.15 K, 109.5 kPa	978.6 kg/m3
343.15 K, 114.4 kPa	978.4 kg/m3
343.15 K, 120 kPa	978.7 kg/m3
343.15 K, 122.2 kPa	978.7 kg/m3
343.15 K, 125.2 kPa	978.7 kg/m3
343.15 K, 129.2 kPa	978.7 kg/m3
343.15 K, 133.3 kPa	978.6 kg/m3
343.15 K, 138.9 kPa	978.6 kg/m3
343.15 K, 146.6 kPa	978.5 kg/m3
343.15 K, 154.5 kPa	978.6 kg/m3
343.15 K, 164.6 kPa	978.5 kg/m3
343.15 K, 180.1 kPa	978.6 kg/m3
343.15 K, 197 kPa	978.6 kg/m3
343.15 K, 217.8 kPa	978.7 kg/m3
343.15 K, 250.8 kPa	978.7 kg/m3
343.15 K, 286.7 kPa	978.8 kg/m3
343.15 K, 330.1 kPa	978.8 kg/m3
343.15 K, 380.3 kPa	978.7 kg/m3
343.15 K, 749.2 kPa	979 kg/m3
343.15 K, 1709.2 kPa	979.9 kg/m3
343.15 K, 1788.2 kPa	980 kg/m3
343.15 K, 1843.4 kPa	979.8 kg/m3
343.15 K, 1867.5 kPa	979.9 kg/m3
343.15 K, 1894.4 kPa	980 kg/m3
343.15 K, 1917.3 kPa	979.9 kg/m3
343.15 K, 1941.1 kPa	980 kg/m3
343.15 K, 1965.4 kPa	980.1 kg/m3
343.15 K, 1994.4 kPa	979.9 kg/m3
343.15 K, 2019 kPa	980.2 kg/m3
343.15 K, 2044.9 kPa	980.2 kg/m3
343.15 K, 2075.6 kPa	980 kg/m3
343.15 K, 2102.6 kPa	980 kg/m3
343.15 K, 2129.9 kPa	980.2 kg/m3
343.15 K, 2163.5 kPa	980.2 kg/m3
343.15 K, 2193.4 kPa	980.1 kg/m3
343.15 K, 2252.9 kPa	980.3 kg/m3
343.15 K, 2352.8 kPa	980.3 kg/m3
343.15 K, 2494.2 kPa	980.5 kg/m3
343.15 K, 2573.8 kPa	980.5 kg/m3
343.15 K, 2651 kPa	980.7 kg/m3
343.15 K, 2698.2 kPa	980.6 kg/m3
343.15 K, 2738.4 kPa	980.4 kg/m3
343.15 K, 2779.7 kPa	980.7 kg/m3
343.15 K, 2830.5 kPa	980.7 kg/m3
343.15 K, 2972.7 kPa	980.9 kg/m3
343.15 K, 3068.2 kPa	981 kg/m3
343.15 K, 3117.1 kPa	980.9 kg/m3
343.15 K, 3897.8 kPa	981.5 kg/m3
343.15 K, 3924.9 kPa	981.5 kg/m3
343.15 K, 3952.8 kPa	981.6 kg/m3
343.15 K, 3986.3 kPa	981.7 kg/m3
343.15 K, 4014.7 kPa	981.6 kg/m3
343.15 K, 4043.6 kPa	981.7 kg/m3
343.15 K, 4073 kPa	981.8 kg/m3
343.15 K, 4107.7 kPa	981.6 kg/m3
343.15 K, 4137.6 kPa	981.7 kg/m3
343.15 K, 4168.8 kPa	981.8 kg/m3
343.15 K, 4199.3 kPa	981.8 kg/m3
343.15 K, 4230.1 kPa	981.9 kg/m3
343.15 K, 4267.5 kPa	981.9 kg/m3
343.15 K, 4299.4 kPa	981.8 kg/m3
343.15 K, 4597.4 kPa	982 kg/m3
343.15 K, 4629.6 kPa	982.1 kg/m3
343.15 K, 4643.1 kPa	982 kg/m3
343.15 K, 4660.4 kPa	982.2 kg/m3
343.15 K, 4661.1 kPa	982.1 kg/m3
343.15 K, 4661.7 kPa	982.1 kg/m3
343.15 K, 4662.3 kPa	982.1 kg/m3
343.15 K, 4662.6 kPa	982 kg/m3
343.15 K, 4663.1 kPa	982.2 kg/m3
343.15 K, 4754 kPa	982 kg/m3
343.15 K, 4934.5 kPa	982.4 kg/m3
343.15 K, 4956.5 kPa	982.3 kg/m3
343.15 K, 4979.2 kPa	982.3 kg/m3
343.15 K, 5005.6 kPa	982.4 kg/m3
343.15 K, 5027.6 kPa	982.5 kg/m3
343.15 K, 5050.1 kPa	982.4 kg/m3
343.15 K, 5076.2 kPa	982.3 kg/m3
343.15 K, 5120.9 kPa	982.4 kg/m3
343.15 K, 5279.4 kPa	982.6 kg/m3
343.15 K, 5366.4 kPa	982.7 kg/m3
343.15 K, 5392 kPa	982.8 kg/m3
